# Data from ChEMBL document CHEMBL4229455, “Synthesis and anticancer activity of novel bisindolylhydroxymaleimide derivatives with potent GSK-3 kinase inhibition” (Bioorg Med Chem, 2018).
# Assays:
# [1] = system: SNB-75; assay: Cytotoxicity against human SNB75 cells assessed as cell growth at 10 uM after 48 hrs by SRB assay relative to control; type: functional; conditions: SNB-75, 48 h, read-out: Activity
# [2] = system: KM12; assay: Cytotoxicity against human KM12 cells assessed as cell growth at 10 uM after 48 hrs by SRB assay relative to control; type: functional; conditions: KM12, 48 h, read-out: Activity
# [3] = system: OVCAR-3; assay: Cytotoxicity against human OVCAR3 cells assessed as cell growth at 10 uM after 48 hrs by SRB assay relative to control; type: functional; conditions: OVCAR-3, 48 h, read-out: Activity
# [4] = system: LOX IMVI; assay: Cytotoxicity against human LOXIMVI cells assessed as cell growth at 10 uM after 48 hrs by SRB assay relative to control; type: functional; conditions: read-out: Activity
# [5] = system: MDA-MB-468; assay: Cytotoxicity against human MDA-MB-468 cells assessed as cell growth at 10 uM after 48 hrs by SRB assay relative to control; type: functional; conditions: MDA-MB-468, 48 h, read-out: Activity
# [6] = target: Aurora kinase B (Homo sapiens, UniProt Q96GD4); assay: Inhibition of recombinant full length human aurora B expressed in baculovirus infected Sf9 insect cells using MBP as substrate in presence of [gamma-33P]ATP
# Chain of Aurora kinase B (Q96GD4 whole entry): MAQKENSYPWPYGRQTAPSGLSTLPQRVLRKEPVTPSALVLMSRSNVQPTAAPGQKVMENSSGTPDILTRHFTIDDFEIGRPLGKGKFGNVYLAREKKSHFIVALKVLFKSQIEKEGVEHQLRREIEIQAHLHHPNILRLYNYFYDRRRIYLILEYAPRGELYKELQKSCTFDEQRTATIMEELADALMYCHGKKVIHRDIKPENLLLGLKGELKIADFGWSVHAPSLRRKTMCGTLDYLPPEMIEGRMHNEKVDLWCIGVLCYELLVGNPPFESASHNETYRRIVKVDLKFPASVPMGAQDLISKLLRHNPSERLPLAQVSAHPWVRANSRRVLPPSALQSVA
# [7] = system: HOP-62; assay: Cytotoxicity against human HOP62 cells assessed as cell growth at 10 uM after 48 hrs by SRB assay relative to control; type: functional; conditions: HOP-62, 48 h, read-out: Activity
# [8] = system: HCT-116; assay: Cytotoxicity against human HCT116 cells assessed as cell growth at 10 uM after 48 hrs by SRB assay relative to control; type: functional; conditions: HCT-116, 48 h, read-out: Activity
# [9] = system: NCI/ADR-RES; assay: Cytotoxicity against human NCI-ADR-RES cells assessed as cell growth at 10 uM after 48 hrs by SRB assay relative to control; type: functional; conditions: read-out: Activity
# [10] = system: TK-10; assay: Cytotoxicity against human TK10 cells assessed as cell growth at 10 uM after 48 hrs by SRB assay relative to control; type: functional; conditions: TK-10, 48 h, read-out: Activity
# [11] = system: SW-620; assay: Cytotoxicity against human SW620 cells assessed as cell growth at 10 uM after 48 hrs by SRB assay relative to control; type: functional; conditions: SW-620, 48 h, read-out: Activity
# [12] = system: NCI-H322M; assay: Cytotoxicity against human NCI-H322M cells assessed as cell growth at 10 uM after 48 hrs by SRB assay relative to control; type: functional; conditions: read-out: Activity
# [13] = system: SNB-19; assay: Cytotoxicity against human SNB19 cells assessed as cell growth at 10 uM after 48 hrs by SRB assay relative to control; type: functional; conditions: SNB-19, 48 h, read-out: Activity
# [14] = system: BT-549; assay: Cytotoxicity against human BT549 cells assessed as cell growth at 10 uM after 48 hrs by SRB assay relative to control; type: functional; conditions: BT-549, 48 h, read-out: Activity
# [15] = system: MOLT-4; assay: Cytotoxicity against human MOLT4 cells assessed as cell growth at 10 uM after 48 hrs by SRB assay relative to control; type: functional; conditions: MOLT-4, 48 h, read-out: Activity
# [16] = system: SR; assay: Cytotoxicity against human SR cells assessed as cell growth at 10 uM after 48 hrs by SRB assay relative to control; type: functional; conditions: read-out: Activity
# [17] = target: Serine/threonine-protein kinase pim-1 (Homo sapiens, UniProt P11309); assay: Inhibition of recombinant full length human PIM1 expressed in bacteria assessed as residual activity at 10 uM using histone H1 as substrate in presence of [gamma-33P]ATP
# Chain of Serine/threonine-protein kinase pim-1 (P11309 whole entry, looked up): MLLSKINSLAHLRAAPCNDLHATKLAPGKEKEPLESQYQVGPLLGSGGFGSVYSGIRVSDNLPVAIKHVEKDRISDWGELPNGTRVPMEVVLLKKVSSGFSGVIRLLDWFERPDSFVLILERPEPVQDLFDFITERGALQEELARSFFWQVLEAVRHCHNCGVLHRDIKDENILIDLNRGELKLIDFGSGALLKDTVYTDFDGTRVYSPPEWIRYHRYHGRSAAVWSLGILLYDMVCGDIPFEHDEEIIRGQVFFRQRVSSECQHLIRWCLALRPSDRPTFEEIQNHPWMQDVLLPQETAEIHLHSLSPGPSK
# [18] = system: SF-268; assay: Cytotoxicity against human SF268 cells assessed as cell growth at 10 uM after 48 hrs by SRB assay relative to control; type: functional; conditions: SF-268, 48 h, read-out: Activity
# [19] = system: HT-29; assay: Cytotoxicity against human HT-29 cells assessed as cell growth at 10 uM after 48 hrs by SRB assay relative to control; type: functional; conditions: HT-29, 48 h, read-out: Activity
# [20] = system: HOP-92; assay: Cytotoxicity against human HOP92 cells assessed as cell growth at 10 uM after 48 hrs by SRB assay relative to control; type: functional; conditions: HOP-92, 48 h, read-out: Activity
# [21] = system: M14; assay: Cytotoxicity against human M14 cells assessed as cell growth at 10 uM after 48 hrs by SRB assay relative to control; type: functional; conditions: M14, 48 h, read-out: Activity
# [22] = system: UO-31; assay: Cytotoxicity against human UO31 cells assessed as cell growth at 10 uM after 48 hrs by SRB assay relative to control; type: functional; conditions: UO-31, 48 h, read-out: Activity
# [23] = system: SK-OV-3; assay: Cytotoxicity against human SKOV3 cells assessed as cell growth at 10 uM after 48 hrs by SRB assay relative to control; type: functional; conditions: SK-OV-3, 48 h, read-out: Activity
# [24] = system: NCI-H522; assay: Cytotoxicity against human NCI-H522 cells assessed as cell growth at 10 uM after 48 hrs by SRB assay relative to control; type: functional; conditions: NCI-H522, 48 h, read-out: Activity
# [25] = system: SF-539; assay: Cytotoxicity against human SF539 cells assessed as cell growth at 10 uM after 48 hrs by SRB assay relative to control; type: functional; conditions: SF-539, 48 h, read-out: Activity
# [26] = target: Glycogen synthase kinase-3 (Sus scrofa) (UniProt B2LUN4+I6LNT8); assay: Inhibition of domestic porcine brain full length GSK-3alpha/beta assessed as residual activity at 10 uM using GS-1 as substrate in presence of [gamma-33P]ATP; conditions: Sus scrofa domesticus
# [27] = system: MDA-MB-231; assay: Cytotoxicity against human MDA-MB-231 cells assessed as cell growth at 10 uM after 48 hrs by SRB assay relative to control; type: functional; conditions: MDA-MB-231, 48 h, read-out: Activity
# [28] = system: NCI-H226; assay: Cytotoxicity against human NCI-H226 cells assessed as cell growth at 10 uM after 48 hrs by SRB assay relative to control; type: functional; conditions: NCI-H226, 48 h, read-out: Activity
# [29] = system: A498; assay: Cytotoxicity against human A498 cells assessed as cell growth at 10 uM after 48 hrs by SRB assay relative to control; type: functional; conditions: A498, 48 h, read-out: Activity
# [30] = organism: Sus scrofa domesticus; assay: Inhibition of domestic porcine brain full length […] assessed as residual activity at 10 uM using RRKHAAIGSpAYSITA as substrate in presence of [gamma-33P]ATP
# [31] = system: T47D; assay: Cytotoxicity against human T47D cells assessed as cell growth at 10 uM after 48 hrs by SRB assay relative to control; type: functional; conditions: read-out: Activity
# [32] = system: OVCAR-4; assay: Cytotoxicity against human OVCAR4 cells assessed as cell growth at 10 uM after 48 hrs by SRB assay relative to control; type: functional; conditions: OVCAR-4, 48 h, read-out: Activity
# [33] = system: Malme-3M; assay: Cytotoxicity against human MALME-3M cells assessed as cell growth at 10 uM after 48 hrs by SRB assay relative to control; type: functional; conditions: read-out: Activity
# [34] = system: SK-MEL-2; assay: Cytotoxicity against human SK-MEL-2 cells assessed as cell growth at 10 uM after 48 hrs by SRB assay relative to control; type: functional; conditions: SK-MEL-2, 48 h, read-out: Activity
Structure (SMILES),growth at 10 µM [1],growth at 10 µM [2],growth at 10 µM [3],growth at 10 µM [4],growth at 10 µM [5],IC50 [6],growth at 10 µM [7],growth at 10 µM [8],growth at 10 µM [9],growth at 10 µM [10],growth at 10 µM [11],growth at 10 µM [12],growth at 10 µM [14],growth at 10 µM [15],growth at 10 µM [16],Activity [17],growth at 10 µM [18],growth at 10 µM [19],growth at 10 µM [20],growth at 10 µM [21],further results
Cn1cc(C2=C(c3cn(CCCCCC(=O)O)c4ccccc34)C(=O)N(O)C2=O)c2ccccc21,86.5%,99.3%,104%,80%,102%,> 10 µM,92%,98.4%,100%,107%,98.9%,99.8%,103%,92.6%,89.6%,64%,99.5%,105%,71.8%,103%,growth at 10 µM [13]: 104%; growth at 10 µM [22]: 63.2%; growth at 10 µM [23]: 99.8%; growth at 10 µM [24]: 88.3%; growth at 10 µM [25]: 98.9%; Activity [26]: 2%; growth at 10 µM [27]: 84.7%; growth at 10 µM [28]: 91.3%; growth at 10 µM [29]: 91.9%; Activity [30]: 80%; growth at 10 µM [31]: 85.4%; growth at 10 µM [32]: 94.5%
Cn1cc(C2=C(c3cn(C)c4ccccc34)C(=O)N(O)C2=O)c2ccccc21,90.3%,104%,111%,72.8%,86.4%,> 10 µM,97%,99.9%,102%,118%,95.9%,103%,107%,101%,75.4%,33%,112%,102%,80.8%,105%,growth at 10 µM [33]: 118%; growth at 10 µM [13]: 102%; growth at 10 µM [34]: 102%; growth at 10 µM [22]: 74.2%; growth at 10 µM [23]: 101%; growth at 10 µM [24]: 98.4%; growth at 10 µM [25]: 107%; Activity [26]: -13%; growth at 10 µM [27]: 98%; growth at 10 µM [28]: 88.7%; growth at 10 µM [29]: 85.8%; Activity [30]: 104%; growth at 10 µM [31]: 96.4%; growth at 10 µM [32]: 103%
O=C1C2=C(C(=O)N1O)c1cn(c3ccccc13)CCCCCCn1cc2c2ccccc21,91.4%,107%,106%,79.3%,97.5%,> 10 µM,107%,115%,108%,105%,98.6%,108%,97.6%,110%,91.9%,68%,105%,121%,79.6%,102%,growth at 10 µM [33]: 105%; growth at 10 µM [34]: 120%; growth at 10 µM [22]: 80.3%; growth at 10 µM [23]: 106%; growth at 10 µM [24]: 108%; growth at 10 µM [25]: 95.7%; Activity [26]: 48%; growth at 10 µM [27]: 104%; growth at 10 µM [28]: 101%; growth at 10 µM [29]: 88.3%; Activity [30]: 103%; growth at 10 µM [31]: 104%; growth at 10 µM [32]: 113%
